Measured values from US20250255847A1, “[…]s: Novel Drugs for Triple Negative Breast Cancer” (SIMMARON RSEARCH INC, priority 2024, published 2025).

System: STAT3-dependent tumor-promoting genes
Test: cDNA-based gene array of 66 STAT3-dependent genes in MDA-MB-468 cells
Assay type: cell-based, human
Details: 10 nM doses, EGF-stimulated MDA-MB-468
Experimental: FIG. 10 illustrates an embodiment of the present invention and illustrates SIM-1 and SIM-2 inhibit expressions of IL6, RANTES, and other STAT3-dependent tumor promoting genes and proteins. (A) A gene array of STAT3 dependent 66 genes (listed in Table 1) was performed in mRNA samples of MDA-MB-468 cells. Realtime PCR plate coated with 66 primer sets of STAT3-dependent genes was run for four conditions including control, EGF (25 ng/mL), EGF+SIM-1 (10 nM) and EGF+SIM-2 (10 nM). The resultant Ct value was normalized with four different housekeeping genes, and then summarized with a heatmap analyses drawn in Morpheus server of Broad Institute. […] (C) The cloning of STAT3 response element of IL6 promoter upstream of GFP reporter was performed by GeneCopoea genome editing service (Rockville, MD). The bit score map and sequence of consensus STAT3 response element or SEQ ID NO: 2 was shown below. […] After that live cells were recorded at Ex:Em=485/535 nm wavelength for GFP activity. […] (G) The GFP reporter activity was measured where the scrambled gene was cloned upstream of eGFP reporter. […]
Gene array. […] After that, mRNA was isolated using the Gene Jet RNA purification kit (Cat. #K0732), quantified by Bio-Rad Smart Spec™ plus spectrophotometer, converted to cDNA by GoScript™ CDNA synthesis kit, as per the manufacturer's instructions. […]

Row | Structure (SMILES) | expressions of tumor-promoting factors, inflammatory cytokine, metastatic and anti-apoptotic genes (AKT, IL6, RANTES, MMPs, Cyclin D1, Bcl-2 etc.)
1 | O=C(O)CCC(=O)NCc1csc2ccc(Cl)cc12 [SIM-1, 4-[(5-chloro-1-benzothiophen-3-yl)methylamino]-4-oxobutanoic acid] | strongly attenuated
2 | CCOC(=O)c1c(NC(C)=O)sc2c(Cl)c(/C=N/O)ccc12 [SIM-2, ethyl 2-acetamido-7-chloro-6-(hydroxyiminomethyl)-1-benzothiophene-3-carboxylate] | strongly attenuated
